Results: PubChem BioAssay AID1259420 (Broad Institute, 2018)
Values joined by “and” are separate entries in the source; they are usually repeats but may differ in a detail not shown here. Equal values may be shown once. Records with an inconclusive call do not appear. Active and inactive are the calls of the source. How the calls were made is not given here.

Test system: Toxoplasma gondii growth in host cells, no IFN-gamma
Test: compound activity on host-cell Toxoplasma growth – dose response (AID 1259420);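 further: host cells were HeLa; final incubation lasted 72 hours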

Q: With `O=C(Nc1cccc(F)c1)N1CCCCN2[C@H](CO)[C@H](c3ccc(C#Cc4cccnc4)cc3)[C@H]2C1` as the compound, how does the AC50 read?
A: The AC50 was 16.4 µM.

Q: With `COc1cc2c(cc1O)CC[C@@H]1[C@@H]2CC[C@]2(C)[C@@H](O)CC[C@@H]12` as the compound, how does the AC50 read?
A: Its AC50 is 11.2 µM and 5.79 µM.

Q: `CN(C)C(=O)c1ccc(-c2ccc([C@H]3[C@@H](CO)N4C(=O)CN(C(=O)CC5CC5)C[C@@H]34)cc2)cc1` was tested. Which AC50 did it give?
A: Its AC50 is > 39 µM (inactive).

Q: Which AC50 does the source give for `O=C(Nc1ccc(F)cc1)N1CC(=O)N2[C@H](CO)[C@H](c3ccc(-c4cccc(F)c4)cc3)[C@H]2C1` here?
A: The AC50 was 31.1 µM.

Q: `Cc1cc(Nc2cc(N3CCN(C)CC3)nc(Sc3ccc(NC(=O)C4CC4)cc3)n2)n[nH]1` was tested. Which AC50 did it give?
A: The AC50 was 18.7 µM.

Q: `N#Cc1cccc(-c2ccc3c(c2)[C@@H]2[C@@H](CCN2S(=O)(=O)c2ccc(F)cc2)[C@H](CO)N3)c1` was tested. Which AC50 did it give?
A: Its AC50 is 10.1 µM.

Q: How did the AC50 turn out when `c1cnc(N2CCC(Oc3cnccn3)CC2)nc1` was run?
A: The AC50 was 15.6 µM.

Q: Which AC50 does the source give for `C[C@@H]1CN([C@@H](C)CO)C(=O)c2cccc(NC(=O)NC3CCCCC3)c2O[C@H]1CN(C)Cc1ccc(C(F)(F)F)cc1` here?
A: The AC50 was > 39 µM (inactive).

Q: With `Cc1ccc(CNC2=NCCNC23CCN(S(=O)(=O)c2ccc4c(c2)CCCC4)CC3)cc1` as the compound, how does the AC50 read?
A: Its AC50 is 23 µM.

Q: Which AC50 does the source give for `O=C(O)CN1C[C@H]2c3ccccc3C(OCC3CC3)[C@@H]2C1` (stereo partly specified) here?
A: The AC50 was > 39 µM (inactive).

Q: How did the AC50 turn out when `O=C(CCCCCCNC(=O)c1cnc(N(c2ccccc2)c2ccccc2)nc1)NO` was run?
A: Its AC50 is 14.8 µM.

Q: How did the AC50 turn out when `CN1CCN(C(=O)c2nn(C)c3c2CCN(S(C)(=O)=O)C3)CC1` was run?
A: The AC50 was > 39 µM (inactive).

Q: Which AC50 does the source give for `COc1cc([C@@H]2c3cc4c(cc3C(OC3OC5COC(C)OC5C(O)C3O)C3OCC(=O)[C@@H]32)OCO4)cc(OC)c1O` (stereo partly specified) here?
A: Its AC50 is 13.7 µM.

Q: How did the AC50 turn out when `C=CCNc1nnc(Cl)c2ccccc12` was run?
A: Its AC50 is 17.8 µM.

Q: With `C[C@@H]1CN(Cc2ccc(F)cc2)CCN1C(=O)COc1ccc(Cl)cc1NC(N)=O` as the compound, how does the AC50 read?
A: Its AC50 is > 39 µM (inactive).

Q: Which AC50 does the source give for `COc1cccc(-c2nc3c(s2)CN(S(=O)(=O)c2cc(C)ccc2C)CC3)c1` here?
A: The AC50 was 7.12 µM.

Q: `O=S(=O)(c1ccccc1F)N1CCC(c2nc3ccc(-c4ccncc4)cn3n2)CC1` was tested. Which AC50 did it give?
A: The AC50 was > 39 µM (inactive).

Q: For `O=C(Nc1ccccc1F)N1C[C@@H]2N[C@H](C1)C2c1ccc(/C=C/c2ccccc2)cc1` (stereo partly specified), which AC50 is on record?
A: The AC50 was 18.6 µM.

Q: How did the AC50 turn out when `CC(C)CC#Cc1ccc([C@@H]2[C@@H](CO)N3CCCCN(C(=O)Nc4ccccc4)C[C@@H]23)cc1` was run?
A: Its AC50 is 23.7 µM.

Q: With `N#Cc1ccc(-c2ccc([C@@H]3[C@@H]4CN(S(=O)(=O)Cc5ccccc5)C[C@H]3N4)cc2)cc1` as the compound, how does the AC50 read?
A: Its AC50 is 9.96 µM.

Q: Which AC50 does the source give for `CN(C[C@H]1[C@H](c2ccccc2)[C@@H](CO)N1CC1CC1)C(=O)c1ccc(F)cc1` here?
A: Its AC50 is > 39 µM (inactive).

Q: With `Cc1sc2ncnc(Oc3ccc(OCc4ccccc4)cc3)c2c1C` as the compound, how does the AC50 read?
A: The AC50 was 7.16 µM and 9.76 µM.

Q: For `COc1cccc(-c2nc3c(s2)CN(S(=O)(=O)c2ccc(C)cc2)CC3)c1`, which AC50 is on record?
A: Its AC50 is 34 µM.

Q: `O=C(NC1CCCC1)[C@H]1[C@H](CO)[C@H]2Cn3c(ccc(C4=CCCCC4)c3=O)[C@@H]1N2CC1CC1` was tested. Which AC50 did it give?
A: The AC50 was > 39 µM (inactive).

Q: How did the AC50 turn out when `O=C(Nc1cccc(F)c1)C1CC12CCN(S(=O)(=O)c1ccccc1)C2` (stereo unspecified) was run?
A: Its AC50 is 35.5 µM.

Q: `CN(C)Cc1noc2c1CN(Cc1nccn1C)CC2` was tested. Which AC50 did it give?
A: Its AC50 is > 39 µM (inactive).

Q: `CN(C)C(=O)COCC1CN(S(C)(=O)=O)Cc2nnn(C)c21` (stereo unspecified) was tested. Which AC50 did it give?
A: Its AC50 is > 39 µM (inactive).

Q: Which AC50 does the source give for `O=C(NCCN1CCCC1)[C@H]1[C@H](CO)[C@H]2Cn3c(cccc3=O)[C@H]2N1Cc1ccccn1` here?
A: Its AC50 is > 39 µM (inactive).

Q: How did the AC50 turn out when `N#C[C@@H]1[C@@H](c2ccc(C#Cc3cccnc3)cc2)[C@@H](CO)N1C(=O)NC1CCCCC1` was run?
A: Its AC50 is > 39 µM (inactive).

Q: With `COc1ccccc1NC(=O)N1CC(=O)N2[C@H](CO)[C@H](c3ccc(C#CC(C)C)cc3)[C@H]2C1` as the compound, how does the AC50 read?
A: Its AC50 is > 39 µM (inactive).

Q: For `O=C(Cc1ccccc1)N1CCC2(CC1)CC(N1CCCC1)CO2` (stereo unspecified), which AC50 is on record?
A: Its AC50 is > 39 µM (inactive).

Q: Which AC50 does the source give for `CN1c2ccc(-c3ccccc3)cc2[C@@H]2[C@@H](CCN2C(=O)NC2CCCCC2)[C@H]1CO` here?
A: The AC50 was 8.76 µM.

Q: How did the AC50 turn out when `CC(C)CC#Cc1ccc([C@@H]2[C@@H](CO)N3C(=O)CN(C(=O)c4cccc(F)c4)C[C@@H]23)cc1` was run?
A: The AC50 was 16.4 µM and 13.5 µM.

Q: `CN(C[C@H]1N[C@@H](CO)[C@@H]1c1ccc(C2=CCCC2)cc1)C(=O)c1cccc(F)c1` was tested. Which AC50 did it give?
A: Its AC50 is 3.41 µM and 4.45 µM.

Q: How did the AC50 turn out when `CN(C)C(=O)c1cccc(-c2ccc3c(c2)[C@H]2[C@H](CCN2C(=O)Cc2ccccc2)[C@H](CO)N3)c1` was run?
A: Its AC50 is 16.6 µM.

Q: With `CCc1c2c(nc3ccc(OC(=O)N4CCC(N5CCCCC5)CC4)cc13)-c1cc3c(c(=O)n1C2)COC(=O)[C@]3(O)CC` as the compound, how does the AC50 read?
A: Its AC50 is 24.7 µM.

Q: `N#Cc1cccc(-c2ccc3c(c2)[C@H]2[C@H](CCN2Cc2ccc4c(c2)OCO4)[C@@H](CO)N3)c1` was tested. Which AC50 did it give?
A: Its AC50 is 15 µM.

Q: With `N#Cc1cccc(C(=O)N2CCC3C2CC(=O)N3Cc2ccncc2)c1` (stereo unspecified) as the compound, how does the AC50 read?
A: The AC50 was > 20 µM (inactive).

Q: How did the AC50 turn out when `COCCN1CCN(S(=O)(=O)c2ccccc2)Cc2cccnc21` was run?
A: Its AC50 is 31.1 µM.

Q: For `COc1cccc(S(=O)(=O)N2CC[C@@H]3[C@H](CO)Nc4ccc(C5=CCCCC5)cc4[C@@H]32)c1`, which AC50 is on record?
A: The AC50 was 14.1 µM.

Q: With `O=C(c1ccc(F)cc1)N1CC(=O)N2[C@@H](CO)[C@H](c3ccc(C#CCC4CCCC4)cc3)[C@@H]2C1` as the compound, how does the AC50 read?
A: The AC50 was 18.6 µM and 22.6 µM.

Q: For `O=C(Nc1ccc2c(c1)OCO2)N1C[C@@H]2N[C@H](C1)C2c1ccc(C=Cc2ccccc2)cc1` (stereo partly specified), which AC50 is on record?
A: Its AC50 is 11.6 µM and 8.75 µM.

Q: For `CCN(CC)CCO[C@H]1CC[C@@]2(C)C(=CC[C@@H]3[C@@H]2CC[C@]2(C)C(=O)CC[C@@H]32)C1`, which AC50 is on record?
A: The AC50 was > 39 µM (inactive).

Q: For `COc1ccc(S(=O)(=O)N(C)C[C@H]2Oc3c(NC(=O)c4nc5ccccc5s4)cccc3C(=O)N([C@@H](C)CO)C[C@@H]2C)cc1`, which AC50 is on record?
A: The AC50 was 11.3 µM and 1.88 µM.

Q: `CC(C)(C)c1ccc(S(=O)(=O)N2CCC[C@@H]2C(=O)NCCc2csc(-c3ccccc3)n2)cc1` was tested. Which AC50 did it give?
A: The AC50 was > 39 µM (inactive).

Q: How did the AC50 turn out when `CCCNC(=O)N1[C@@H](C#N)[C@H](c2ccc(C#Cc3cccc(F)c3)cc2)[C@@H]1CO` was run?
A: Its AC50 is 19.3 µM.

Q: With `O=S(=O)(c1ccccc1F)N1CC[C@H]2[C@H](CO)Nc3ccc(C4=CCCCC4)cc3[C@H]21` as the compound, how does the AC50 read?
A: Its AC50 is 12.4 µM.

Q: How did the AC50 turn out when `N#Cc1cccc(-c2ccc3c(c2)[C@H]2[C@H](CCN2Cc2ccc4c(c2)OCO4)[C@H](CO)N3)c1` was run?
A: The AC50 was 17.2 µM.

Q: With `O=C(Cc1ccc(Cl)cc1)N1CC2(CCN(Cc3ccc(C(F)(F)F)cc3)CC2)C1` as the compound, how does the AC50 read?
A: Its AC50 is > 39 µM (inactive).

Q: How did the AC50 turn out when `COc1cccc(S(=O)(=O)N2CCCCN3[C@H](CO)[C@H](c4ccc(C#CCC(C)C)cc4)[C@H]3C2)c1` was run?
A: The AC50 was 7.96 µM and 10.6 µM.

Q: `COc1cccc(-c2ccc3c(c2)[C@@H]2[C@@H](CCN2S(=O)(=O)c2ccccc2F)[C@H](CO)N3)c1` was tested. Which AC50 did it give?
A: Its AC50 is 10.9 µM.

Q: `CCN(C)C(=O)c1ccc2ccc(N(C)Cc3ccc(OC)cc3)n2c1` was tested. Which AC50 did it give?
A: Its AC50 is 19.2 µM.

Q: Which AC50 does the source give for `O=C(c1ccc(F)cc1)N1CC(=O)N2[C@H](C1)[C@@H](c1ccc(C#CCC3CCCC3)cc1)[C@@H]2CO` here?
A: The AC50 was 14.3 µM.

Q: Which AC50 does the source give for `CC(=O)N(C)C1(c2ccccc2)CCN(CCC[C@]2(c3ccc(Cl)c(Cl)c3)CCCN(C(=O)c3ccccc3)C2)CC1` here?
A: The AC50 was 16.7 µM.

Q: With `Cn1cnc(S(=O)(=O)N2CCCCN3[C@H](CO)[C@H](c4ccc(C5=CCCCC5)cc4)[C@@H]3C2)c1` as the compound, how does the AC50 read?
A: Its AC50 is 23.4 µM and 22.7 µM.

Q: Which AC50 does the source give for `COCC1CN(C(=O)Cc2ccsc2)Cc2nccn2C1` (stereo unspecified) here?
A: The AC50 was 28.3 µM.

Q: Which AC50 does the source give for `O=C(C[C@@H]1CC[C@@H]2[C@H](COC[C@@H](O)CN2Cc2ccc(Oc3ccccc3)cc2)O1)N1CCN(c2ccccc2)CC1` here?
A: The AC50 was 16.5 µM.

Q: For `COc1cccc(S(=O)(=O)N2CCCCN3[C@H](CO)[C@@H](c4ccc(C#CCC(C)C)cc4)[C@H]3C2)c1`, which AC50 is on record?
A: Its AC50 is 12.1 µM and 13.6 µM and 21.9 µM.

Q: How did the AC50 turn out when `O=C(c1ccc(F)cc1)N1CC(=O)N2[C@@H](CO)[C@@H](c3ccc(C#CCC4CCCC4)cc3)[C@@H]2C1` was run?
A: The AC50 was 21.2 µM.

Q: With `Cc1ccc(N2CCC3(CC2)CN(CC#N)Cc2ccccc23)nn1` as the compound, how does the AC50 read?
A: Its AC50 is > 39 µM (inactive).

Q: For `COc1ccc(NC(=O)N2CCCCN3[C@H](CO)[C@@H](c4ccc(-c5ccccc5F)cc4)[C@H]3C2)cc1`, which AC50 is on record?
A: Its AC50 is 19.7 µM.
